The text below walks through data of patent US20080153796A1, “Promotion of wound contraction” (RENOVO LIMITED, priority 2006, published 2008).

Molecules are shown by their SMILES.

Data set [1] concerns full thickness cutaneous excisional wounds (punch biopsies). Description: Wound width three days after punch biopsies in human volunteers (histological assessment). The class given is in vivo. The note with it: day 3; for average wound width: single intradermal injection 10-30 min before 3 mm punch biopsy. The text has this:
A single site, double-blind study was undertaken to illustrate the efficacy of medicaments of the invention in promoting contraction of punch biopsy wounds in healthy male and post-menopausal female subjects. The control treatments used in this study were Placebo (vehicle) and Standard Care (moist wound healing dressings).
44 healthy subjects were recruited to the study, of whom, 40 were healthy males (aged 18-75years) and 4 were post-menopausal females (aged 53-69 years). The average age of subjects recruited to this study was 42 years. The post-menopausal status of female subjects was confirmed by quantification of serum levels of estradiol and follicle stimulating hormone (FSH). Serum levels of estradiol were required to be <90 pmol/L, and follicle stimulating hormone levels >31 IU/L.
Before wounding, each subject received either a medicament of the invention (providing a 100 μl intradermal injection of a solution comprising 400 ng of 17β-oestradiol in a diluent comprising PBS and 5% v/v ethanol), or a control medicament (two used, providing a 100 μl intradermal injection of a solution comprising either 20 ng or 100 ng respectively of 17β-oestradiol in a diluent comprising PBS and 5% v/v ethanol). The experimental medicaments (either of the invention or control) were administered intradermally as a single dose at a volume of 100 μl per wound site, 10-30 minutes before wounding to sites on the upper, inner aspect of the arm. This administration was sufficient to prophylactically “prime” an area of 1 cm^2 of unwounded skin prior to wounding. Wounds were made with a 3 mm punch biopsy.
Biopsy sites were excised, using a 5 mm punch biopsy, three days after wounding. Excised wounds were preserved for histological assessment of wound width. All histological assessments were made using preserved 5 micron-thickness wound sections taken from the widest part of each excised biopsy site. Sections were stained with Haematoxylin and Eosin to aid visualisation of structural features, and measurements made using image analysis software. The wound diameter is the linear total wound diameter of the wound section measured in micrometres. The average wound diameter value was calculated from the 44 wounds of each treatment group.

The conditions of data set [2]: 100 μg of oestradiol applied in a gel; six hours from application; cited from earlier work.
The conditions of data set [3]: matrix of U.S. Pat. No. 5,252,334, without drug delivery rate enhancers; cited from earlier work.

With `C[C@]12CC[C@@H]3c4ccc(O)cc4CC[C@H]3[C@@H]1CC[C@@H]2O` [17β-oestradiol], the average wound width in data set [1] (20 ng 17β-oestradiol in 100 μl PBS/5% v/v ethanol, control medicament) amounted to 2626 μm; in data set [1] (100 ng 17β-oestradiol in 100 μl PBS/5% v/v ethanol, control medicament) it was 2612 μm; in data set [1] (400 ng 17β-oestradiol in 100 μl PBS/5% v/v ethanol, medicament of the invention), 2480 μm. In addition, the “wound width compared to control treated or untreated wounds” value in data set [1] (400 ng 17β-oestradiol, intradermal) was “significantly decreased”. The “amount of applied oestradiol found in the skin or having passed through the skin” value in data set [2] is 15.7 µg. Moreover, the “rate of administration per hour per square centimetre of skin” value in data set [3] is on record as “approximately 0.2 μg”.
